Source: patent US12492188B2, “1H-benzo[D]imidazole derivatives as TLR9 inhibitors for the treatment of fibrosis” (BRISTOL-MYERS SQUIBB COMPANY, priority 2020, dated 2025)
Read-outs that look alike come from different tables or passages of the source.

Tests used:
Type in all cases: cell-based
[1] = molecular target: T1, human TLR7 (Homo sapiens, UniProt Q9NYK1); assay: TLR7 inhibition reporter assay (HEK-Blue cells, secreted embryonic alkaline phosphatase reporter); conditions: HEK-Blue cells overexpressing human TLR7, stimulated with gardiquimod 7.5 μM; read-out: TLR 7 IC50
T1 construct: host or cells: HEK-Blue cells (HEK293-derived reporter line)
T1 sequence (Q9NYK1 27-1049): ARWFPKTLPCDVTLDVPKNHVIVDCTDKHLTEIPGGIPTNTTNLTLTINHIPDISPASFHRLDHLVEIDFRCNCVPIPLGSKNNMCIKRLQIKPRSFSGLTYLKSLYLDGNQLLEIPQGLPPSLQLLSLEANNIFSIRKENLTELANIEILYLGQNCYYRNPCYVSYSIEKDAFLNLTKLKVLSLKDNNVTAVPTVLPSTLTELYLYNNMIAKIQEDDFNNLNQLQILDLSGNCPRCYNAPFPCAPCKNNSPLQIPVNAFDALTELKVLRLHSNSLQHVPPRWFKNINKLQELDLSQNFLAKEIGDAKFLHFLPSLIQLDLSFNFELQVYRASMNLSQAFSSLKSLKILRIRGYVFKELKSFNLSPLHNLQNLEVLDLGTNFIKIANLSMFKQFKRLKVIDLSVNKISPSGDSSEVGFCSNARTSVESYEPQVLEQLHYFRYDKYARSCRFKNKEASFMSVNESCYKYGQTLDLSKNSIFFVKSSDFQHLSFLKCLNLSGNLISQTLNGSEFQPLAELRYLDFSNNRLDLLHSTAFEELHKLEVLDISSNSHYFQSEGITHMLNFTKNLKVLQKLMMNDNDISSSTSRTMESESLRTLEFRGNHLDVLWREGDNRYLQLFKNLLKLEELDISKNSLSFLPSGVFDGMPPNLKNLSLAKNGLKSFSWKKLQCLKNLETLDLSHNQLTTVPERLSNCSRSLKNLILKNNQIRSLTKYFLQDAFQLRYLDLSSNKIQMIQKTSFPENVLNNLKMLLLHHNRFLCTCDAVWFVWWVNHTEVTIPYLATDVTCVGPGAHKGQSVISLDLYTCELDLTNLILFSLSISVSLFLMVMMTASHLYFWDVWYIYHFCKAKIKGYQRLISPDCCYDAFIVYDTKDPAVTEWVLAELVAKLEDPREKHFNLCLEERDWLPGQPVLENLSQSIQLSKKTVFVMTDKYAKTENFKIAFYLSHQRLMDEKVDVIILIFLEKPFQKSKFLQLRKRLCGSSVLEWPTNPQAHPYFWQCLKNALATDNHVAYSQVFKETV
In short: (§1)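 HEK-Blue cells overexpressing the respective receptor, with an NF-κB/AP-1-driven SEAP reporter, were pre-treated with compound (0.05 nM–50 μM) for 30 min at room temperature. Stimulation used gardiquimod 7.5 μM (TLR7), R848 15.9 μM (TLR8) or ODN2006 5 nM (TLR9); SEAP was read after 22 h at 37 °C as percent inhibition.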

[2] = molecular target: T2, human TLR8 (Homo sapiens, UniProt Q9NR97); assay: TLR8 inhibition reporter assay (HEK-Blue cells, secreted embryonic alkaline phosphatase reporter); conditions: HEK-Blue cells overexpressing human TLR8, stimulated with R848 15.9 μM; read-out: TLR 8 IC50
T2 construct: host or cells: HEK-Blue cells (HEK293-derived reporter line)
T2 sequence (Q9NR97 27-1041): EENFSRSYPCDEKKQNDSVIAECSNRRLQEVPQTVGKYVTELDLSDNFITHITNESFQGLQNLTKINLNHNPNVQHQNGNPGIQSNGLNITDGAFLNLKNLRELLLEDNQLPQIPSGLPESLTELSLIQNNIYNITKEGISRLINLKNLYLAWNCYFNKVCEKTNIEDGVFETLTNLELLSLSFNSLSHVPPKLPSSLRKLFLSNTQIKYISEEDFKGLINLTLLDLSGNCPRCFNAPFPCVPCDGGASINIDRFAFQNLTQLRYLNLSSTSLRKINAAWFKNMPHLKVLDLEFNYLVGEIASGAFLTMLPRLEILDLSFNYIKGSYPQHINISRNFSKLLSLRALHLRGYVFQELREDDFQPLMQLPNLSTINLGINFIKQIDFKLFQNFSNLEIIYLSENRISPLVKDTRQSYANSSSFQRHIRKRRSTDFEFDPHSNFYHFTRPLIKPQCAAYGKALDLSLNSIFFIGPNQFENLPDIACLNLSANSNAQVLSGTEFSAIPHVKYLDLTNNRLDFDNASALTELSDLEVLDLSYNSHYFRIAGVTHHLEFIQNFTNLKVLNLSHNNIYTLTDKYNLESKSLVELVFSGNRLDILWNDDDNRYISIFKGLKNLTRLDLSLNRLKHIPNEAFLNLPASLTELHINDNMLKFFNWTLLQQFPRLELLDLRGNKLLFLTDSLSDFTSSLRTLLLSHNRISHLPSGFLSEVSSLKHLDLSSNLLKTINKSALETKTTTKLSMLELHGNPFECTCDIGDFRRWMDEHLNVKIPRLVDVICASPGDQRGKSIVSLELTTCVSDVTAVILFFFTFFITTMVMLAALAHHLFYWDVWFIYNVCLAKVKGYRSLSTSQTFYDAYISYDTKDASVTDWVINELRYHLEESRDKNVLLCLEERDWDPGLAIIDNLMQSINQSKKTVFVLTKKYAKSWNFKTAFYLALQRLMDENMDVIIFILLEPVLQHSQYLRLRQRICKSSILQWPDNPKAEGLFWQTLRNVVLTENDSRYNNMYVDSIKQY
In short: as §1

[3] = molecular target: T3, human TLR9 (Homo sapiens, UniProt Q9NR96); assay: TLR9 inhibition reporter assay (HEK-Blue cells, secreted embryonic alkaline phosphatase reporter)
T3 construct: host or cells: HEK-Blue cells (HEK293-derived reporter line)
T3 sequence (Q9NR96 26-1032): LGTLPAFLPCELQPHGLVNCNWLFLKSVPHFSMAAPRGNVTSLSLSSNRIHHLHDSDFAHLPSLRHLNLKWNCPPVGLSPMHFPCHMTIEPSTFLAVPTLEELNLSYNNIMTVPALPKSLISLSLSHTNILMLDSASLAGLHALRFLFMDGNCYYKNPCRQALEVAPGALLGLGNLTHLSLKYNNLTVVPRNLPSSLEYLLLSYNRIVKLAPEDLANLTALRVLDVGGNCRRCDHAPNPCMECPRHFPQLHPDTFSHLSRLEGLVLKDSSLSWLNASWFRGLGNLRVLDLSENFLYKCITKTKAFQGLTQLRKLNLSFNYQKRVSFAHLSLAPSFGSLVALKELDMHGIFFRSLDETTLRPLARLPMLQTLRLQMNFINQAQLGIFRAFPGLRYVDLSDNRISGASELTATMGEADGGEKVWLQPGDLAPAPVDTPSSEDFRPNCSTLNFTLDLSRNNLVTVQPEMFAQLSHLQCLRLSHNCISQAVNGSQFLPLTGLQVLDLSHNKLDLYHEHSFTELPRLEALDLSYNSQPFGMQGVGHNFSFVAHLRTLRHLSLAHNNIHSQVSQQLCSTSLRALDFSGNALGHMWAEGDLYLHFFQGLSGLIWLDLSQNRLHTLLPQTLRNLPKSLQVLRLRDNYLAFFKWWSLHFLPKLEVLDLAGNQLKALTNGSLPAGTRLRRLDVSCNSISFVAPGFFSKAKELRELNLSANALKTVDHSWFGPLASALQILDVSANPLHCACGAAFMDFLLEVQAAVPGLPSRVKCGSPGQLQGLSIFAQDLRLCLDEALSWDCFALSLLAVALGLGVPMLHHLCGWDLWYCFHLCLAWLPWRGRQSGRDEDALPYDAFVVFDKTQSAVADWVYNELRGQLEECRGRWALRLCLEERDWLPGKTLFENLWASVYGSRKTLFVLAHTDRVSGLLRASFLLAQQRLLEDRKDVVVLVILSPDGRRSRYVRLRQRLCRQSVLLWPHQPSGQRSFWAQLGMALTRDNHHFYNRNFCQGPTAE
In short: as §1

[4] = HEK-Blue cells overexpressing human TLR9, stimulated with ODN2006 5 nM, read-out: TLR 9 IC50
[5] = HEK-Blue cells overexpressing human TLR9, stimulated with ODN2006 5 nM, 22 hour incubation, reporter readout

## Cn1c(-c2ccc(S(C)(=O)=O)cc2)nc2cc(F)c(C3CCN(C4CCN(C5CCC5)CC4)CC3)cc21 [Example 223, 6-(1′-cyclobutyl-[1,4′-bipiperidin]-4-yl)-5-fluoro-1-methyl-2-(4-(methylsulfonyl)phenyl)-1H-benzo[d]imidazole]
[1]
  IC50: > 50 µM
[2]
  IC50: > 50 µM
[3]
  IC50: 290 nM
[3]; [4]
  IC50: 290 nM

## CC(C)CN1C2CCC1CC(N1CCC(c3cc(F)c4c(c3)nc(-c3ccc(S(C)(=O)=O)cc3)n4C)CC1)C2 (stereo not shown) [Example 209, 7-fluoro-5-(1-(8-isobutyl-8-azabicyclo[3.2.1]octan-3-yl)piperidin-4-yl)-1-methyl-2-(4-(methylsulfonyl)phenyl)-1H-benzo[d]imidazole]
[1]
  IC50: 16.7 µM
[2]
  IC50: 16.7 µM
[3]
  IC50: 81 nM
[3]; [4]
  IC50: 81 nM

## COc1ccc(-c2nc3ccc(C4CCN(C5CCN(C(C)C)CC5)CC4)cc3n2CC(F)F)cc1OC [Example 4, 1-(2,2-difluoroethyl)-2-(3,4-dimethoxyphenyl)-6-(1′-isopropyl-[1,4′-bipiperidin]-4-yl)-1H-benzo[d]imidazole]
[1]
  IC50: 4.7 µM
[2]
  IC50: > 50 µM
[3]; [5]
  IC50: 250 nM
[3]; [4]
  IC50: 253 nM

## Cc1cc(-c2ccc(CN3CC4(C3)CN(C(C)C)C4)c(F)c2)cc2c1nc(-c1ccc(S(C)(=O)=O)cc1)n2C [Example 404, 6-(3-fluoro-4-((6-isopropyl-2,6-diazaspiro[3.3]heptan-2-yl)methyl)phenyl)-1,4-dimethyl-2-(4-(methylsulfonyl)phenyl)-1H-benzo[d]imidazole]
[1]
  IC50: 0.1 µM
[2]
  IC50: 7.2 µM
[3]; [5]
  IC50: 69 nM
[3]; [4]
  IC50: 69 nM

## CC(C)N1C2CCC1CC(N1CCC(c3cc(F)c4nc(-c5ccc(S(C)(=O)=O)cc5)n(C)c4c3)CC1)C2 (single isomer, unassigned) [Example 107, 4-fluoro-6-(1-(8-isopropyl-8-azabicyclo[3.2.1]octan-3-yl)piperidin-4-yl)-1-methyl-2-(4-(methylsulfonyl)phenyl)-1H-benzo[d]imidazole]
[1]
  IC50: 5.8 µM
[2]
  IC50: > 50 µM
[3]; [5]
  IC50: 270 nM
[3]; [4]
  IC50: 269 nM

## COc1ccc(-c2nc3c(C)cc(C4CCN(C5CC6(C5)CN(C(C)C)C6)CC4)cc3[nH]2)cc1OC [Example 12, 2-(3,4-dimethoxyphenyl)-6-(1-(2-isopropyl-2-azaspiro[3.3]heptan-6-yl)piperidin-4-yl)-4-methyl-1H-benzo[d]imidazole]
[1]
  IC50: 22 µM
[2]
  IC50: > 50 µM
[3]; [5]
  IC50: 60 nM

## Cc1cc(-c2ccc(CN3C[C@H]4CN(C)C[C@H]4C3)c(F)c2)cc2c1nc(-c1ccc(S(C)(=O)=O)cc1)n2C [Example 388, 6-(3-fluoro-4-((cis-5-methylhexahydropyrrolo[3,4-c]pyrrol-2(1H)-yl)methyl)phenyl)-1,4-dimethyl-2-(4-(methylsulfonyl)phenyl)-1H-benzo[d]imidazole]
[1]
  IC50: 0.4 µM
[2]
  IC50: 3.2 µM
[3]; [5]
  IC50: 230 nM
[3]; [4]
  IC50: 227 nM

## Cc1cc(C2CCN(C3CCN(C4CC4)CC3)CC2)cc2c1nc(-c1ccc(S(C)(=O)=O)cc1)n2C [Example 53, 6-(1′-cyclopropyl-[1,4′-bipiperidin]-4-yl)-1,4-dimethyl-2-(4-(methylsulfonyl)phenyl)-1H-benzo[d]imidazole]
[1]
  IC50: 24 µM
[2]
  IC50: > 50 µM
[3]; [5]
  IC50: 420 nM
[3]; [4]
  IC50: 421 nM

## Cc1ccc(CN2CCC(c3cc(C)c4nc(-c5ccc(S(C)(=O)=O)cc5)n(C)c4c3)CC2)cn1 [Example 419, 1,4-dimethyl-6-(1-((6-methylpyridin-3-yl)methyl)piperidin-4-yl)-2-(4-(methylsulfonyl)phenyl)-1H-benzo[d]imidazole]
[1]
  IC50: 2.3 µM
[2]
  IC50: 8.4 µM
[3]; [5]
  IC50: 2100 nM
[3]; [4]
  IC50: 2140 nM

## Cn1c(-c2ccc(S(C)(=O)=O)cc2)nc2c(F)cc(C3CCN(C4CC5CCC(C4)N5CC4CC4)CC3)cc21 (single isomer, unassigned) [Example 283, 6-(1-(8-(cyclopropylmethyl)-8-azabicyclo[3.2.1]octan-3-yl)piperidin-4-yl)-4-fluoro-1-methyl-2-(4-(methylsulfonyl)phenyl)-1H-benzo[d]imidazole]
[1]
  IC50: 4.7 µM
[2]
  IC50: > 50 µM
[3]; [4]
  IC50: 16 nM
[3]; HEK-Blue human TLR9 reporter cells
  IC50: 16 nM

## CC(C)CN1C2CCC1CC(N1CCC(c3ccc4nc(-c5ccc(S(C)(=O)=O)cc5)n(C)c4c3F)CC1)C2 (single isomer, unassigned) [Example 267, 7-fluoro-6-(1-(8-isobutyl-8-azabicyclo[3.2.1]octan-3-yl)piperidin-4-yl)-1-methyl-2-(4-(methylsulfonyl)phenyl)-1H-benzo[d]imidazole]
[1]
  IC50: > 50 µM
[2]
  IC50: > 50 µM
[3]
  IC50: 350 nM
[3]; [4]
  IC50: 347 nM
